Ki data for one compound are collected here from BindingDB's records for doi:10.1016/j.bmcl.2012.05.114 (Vertex Pharmaceuticals, 2012).

For the assay, the target named is Tyrosine-protein kinase SYK (Homo sapiens) (UniProt P43405). Nature of the assay: Inhibition of SYK.

With `CC(C)C[C@H]1CN(c2ccc(C(F)(F)F)c(C(=O)c3cccnc3N)n2)CCN1`, the Ki (as a rule, the equilibrium dissociation constant of an inhibitor or competing ligand from its target) is > 4 µM.
